Experimental data as given in patent US20170304195A1, “PHARMACEUTICAL FORMULATIONS FOR THE ORAL DELIVERY OF PEPTIDE OR PROTEIN DRUGS” (Cyprumed GmbH, priority 2014, published 2017).
Where a name gives a salt, the structure may show the parent alone.

Legend:
[1] = In vitro compatibility of absorption enhancers with zinc sulfate (Example 16); type: physicochemical; details: absorption enhancer 10 mg/ml with desmopressin acetate and ZnSO4 5 mg/ml, in 2 ml aqua purificata, visual examination
Description: Solid dry powder mixtures of desmopressin acetate, zinc sulfate and different absorption enhancers were prepared and dissolved in 2 ml aqua purificata.

[2] = pH of dissolved solid powder mixtures (Example 17); type: physicochemical; details: lactose 50 mg, no buffer
[3] = Compatibility of absorption enhancers with Cu2+ and Cu+ salts (dissolution in aqueous medium); type: physicochemical; details: absorption enhancer 10 mg/ml
Source text: Various absorption enhancers were screened regarding their compatibility with the trace element copper in the two main oxidation states as Cu^2+ and Cu^+.

[4] = Plasma liraglutide levels after mid-jejunum administration (Example 6, FIG. 1); type: in vivo, Sprague Dawley rats
Description: FIG. 1: Plasma liraglutide levels after intestinal (mid-jejunum) administration of different liraglutide formulations to rats (see Example 6).
Administration into Mid-Jejunum in Rats:
The wound margins were released from the base.
Dosing was performed slowly.
Correctness of the application was checked.
2.4 mg/kg of the polypeptide liraglutide were dosed into the mid-jejunum of anesthetized Sprague Dawley rats in the presence of the zwitter-ionic absorption enhancer lauroyl carnitine chloride (“LCC”) (20 mg/ml) with and without the addition of (i) the trace element CuSO4 (1 mg/ml) and the reducing agent sodium ascorbate (40 mg/ml) or (ii) the trace element ZnSO4 (1 mg/ml) and the reducing agent glutathione (40 mg/ml). All formulations further comprised Na2HPO4 to result in a neutral pH between 7 to 8.

[5] = Octreotide pharmacokinetics after s.c. or ileum administration (Example 9); type: in vivo, Sprague Dawley rats; details: for AUC(0-t): read-out: AUC(0-90) (converted)
Description: TRIS buffer was used to generate a neutral pH.
The octreotide plasma concentrations were determined using a commercial octreotide kit (AB Biolabs, USA, cat. number CEK 0110-01).

[6] = background statement, unformulated drug; cited from earlier work
[7] = Vancomycin pharmacokinetics after i.v. or ileum administration (Example 5); type: in vivo, Sprague Dawley rats; details: for AUC(0-t) / Cmax: anesthetized rats
Description: The vancomycin plasma concentrations were determined on biochemical autoanalyser Hitachi 912 using commercial vancomycin kit VANC2 (Roche Diagnostics GmbH, Germany). The absolute bioavailability (F) was calculated using equation F (%)=(AUCileum/AUCi.v.)×(Dosei.v./Doseileum)×100.

[8] = Human growth hormone formulation, pharmacokinetics after s.c. or ileum administration (Example 13); type: in vivo, Sprague Dawley rats
Description: The human growth hormone plasma concentrations were determined using commercial growth hormone sensitive human ELISA kit (Biovendor, EU, cat. number RMEE022).

[9] = CuSO4 1 mg/ml, sodium ascorbate 10 mg/ml
[10] = Sprague Dawley, rat, plasma, other: into distal small intestine (ileum), octreotide 0.92 mg/kg ileum (n = 8), lauroyl carnitine chloride 30 mg/ml, CuSO4 1 mg/ml, sodium ascorbate 30 mg/ml, TRIS 22.5 mg/ml
[11] = Sprague Dawley, rat, plasma, sc, octreotide 1 mg/kg s.c., anesthetized rats (n = 3)
[12] = Cu(I)Cl 1 mg/ml, sodium ascorbate 10 mg/ml
[13] = copper (I) acetate 1 mg/ml, sodium ascorbate 10 mg/ml
[14] = Sprague Dawley, rat, plasma, iv, vancomycin 5 mg/kg i.v.
[15] = Sprague Dawley, rat, plasma, vancomycin 20 mg/kg into ileum, lauroyl carnitine 50 mg/ml, CuSO4 1 mg/ml, sodium ascorbate 250 mg/ml
[16] = s.c. 1 ml/kg, 0.2 mg/ml human growth hormone, anaesthetized rats

## C[C@H](CCC(=O)O)[C@H]1CC[C@H]2[C@@H]3[C@H](O)C[C@@H]4C[C@H](O)CC[C@]4(C)[C@H]3C[C@H](O)[C@]12C [Cholic acid]
[1]
  Dissolution in aqueous medium (2 ml): Precipitation

## NC(=O)CC[C@@H]1NC(=O)[C@H](Cc2ccccc2)NC(=O)[C@H](Cc2ccc(O)cc2)NC(=O)CCSSC[C@@H](C(=O)N2CCC[C@H]2C(=O)N[C@H](CCCN=C(N)N)C(=O)NCC(N)=O)NC(=O)[C@H](CC(N)=O)NC1=O [Desmopressin, Desmopressin acetate]
[2]; CuSO4 10 mg, citric acid 10 mg
  Dissolution pH in 5 ml Aqua purificata: 2.6
[2]; CuSO4 10 mg, no absorption enhancer
  Dissolution pH in 5 ml Aqua purificata: 4.7
[2]; ZnSO4 10 mg, citric acid 10 mg
  Dissolution pH in 5 ml Aqua purificata: 2.7
[2]; ZnSO4 10 mg, no absorption enhancer
  Dissolution pH in 5 ml Aqua purificata: 5.5

## O=C(O)CN(CCN(CC(=O)O)CC(=O)O)CC(=O)O [EDTA, ethylenediaminetetraacetic acid]
[3]; [9]
  Dissolution in aqueous medium (2 ml): Clear solution
[1]
  Dissolution in aqueous medium (2 ml): Clear solution

## CCCCCCCCCCCC(=O)OC(CC(=O)O)C[N+](C)(C)C.[Cl-] (stereo not drawn) [Lauroyl carnitine HCl]
[1]
  Dissolution in aqueous medium (2 ml): Clear solution

## CCCCCCCCCCCC(=O)OC(CC(=O)O)C[N+](C)(C)C.[Cl-] (stereo not drawn) [Lauroyl carnitine]
[3]; CuSO4 1 mg/ml, glutathione 10 mg/ml
  Dissolution in aqueous medium (2 ml): Clear solution
[3]; [9]
  Dissolution in aqueous medium (2 ml): Clear solution

## CCCCCCCCCCCCCCCC(=O)N[C@@H](CCC(=O)NCCCC[C@H](NC(=O)[C@H](C)NC(=O)[C@H](C)NC(=O)[C@H](CCC(N)=O)NC(=O)CNC(=O)[C@H](CCC(=O)O)NC(=O)[C@H](CC(C)C)NC(=O)[C@H](Cc1ccc(O)cc1)NC(=O)[C@H](CO)NC(=O)[C@H](CO)NC(=O)[C@@H](NC(=O)[C@H](CC(=O)O)NC(=O)[C@H](CO)NC(=O)[C@@H](NC(=O)[C@H](Cc1ccccc1)NC(=O)[C@@H](NC(=O)CNC(=O)[C@H](CCC(=O)O)NC(=O)[C@H](C)NC(=O)[C@@H](N)Cc1cnc[nH]1)[C@@H](C)O)[C@@H](C)O)C(C)C)C(=O)N[C@@H](CCC(=O)O)C(=O)N[C@@H](Cc1ccccc1)C(=O)N[C@H](C(=O)N[C@@H](C)C(=O)N[C@@H](Cc1c[nH]c2ccccc12)C(=O)N[C@@H](CC(C)C)C(=O)N[C@H](C(=O)N[C@@H](CCCNC(=N)N)C(=O)NCC(=O)N[C@@H](CCCNC(=N)N)C(=O)NCC(=O)O)C(C)C)[C@@H](C)CC)C(=O)O [Liraglutide, liraglutide]
[4]; LCC 20 mg/ml + CuSO4 1 mg/ml + sodium ascorbate 40 mg/ml, compared with LCC alone
  intestinal absorption of liraglutide (plasma levels, FIG. 1), in words: substantially increased the intestinal absorption
[4]; LCC 20 mg/ml + ZnSO4 1 mg/ml + glutathione 40 mg/ml, compared with LCC alone and with the Cu2+ composition
  liraglutide absorption (plasma levels, FIG. 1), in words: improved liraglutide absorption albeit less pronounced

## C[C@@H](O)[C@@H]1NC(=O)[C@H](CCCCN)NC(=O)[C@@H](Cc2c[nH]c3ccccc23)NC(=O)[C@H](Cc2ccccc2)NC(=O)[C@@H](NC(=O)[C@H](N)Cc2ccccc2)CSSC[C@@H](C(=O)N[C@H](CO)[C@@H](C)O)NC1=O [Octreotide]
[5]; [10]
  Cmax: 25.8 ± 14.2 ng/mL
  AUC(0-t): 25.1 ng·h/mL
[5]; [11]
  Cmax: 154 ± 29.8 ng/mL
  AUC(0-t): 167 ng·h/mL
[5]; Sprague Dawley, rat, plasma, octreotide 0.92 mg/kg ileum, lauroyl carnitine chloride 30 mg/ml, CuSO4 1 mg/ml, sodium ascorbate 30 mg/ml, TRIS 22.5 mg/ml, vs s.c.
  F rel: 16.3 ± 7.8%
[5]; octreotide 1 mg/kg s.c. (reference)
  F: 100 ± 18.3%
[5]; octreotide formulation with copper(II) salt, sodium ascorbate, lauroyl carnitine chloride
  bioavailability, in words: markedly increased bioavailability
[6]
  oral bioavailability: less than 1%

## CCCCCCCCCC(=O)[O-].[Na+] [Sodium caprate]
[3]; [12]
  Dissolution in aqueous medium (2 ml): Clear solution
[3]; [9]
  Dissolution in aqueous medium (2 ml): Precipitation
[3]; [13]
  Dissolution in aqueous medium (2 ml): Clear solution
[1]
  Dissolution in aqueous medium (2 ml): Precipitation

## CCCCCCCC(=O)[O-].[Na+] [Sodium caprylate]
[3]; [12]
  Dissolution in aqueous medium (2 ml): Clear solution
[3]; [9]
  Dissolution in aqueous medium (2 ml): Precipitation
[3]; [13]
  Dissolution in aqueous medium (2 ml): Clear solution
[1]
  Dissolution in aqueous medium (2 ml): Precipitation

## C[C@H](CCC(=O)[O-])[C@H]1CC[C@H]2[C@@H]3[C@H](O)C[C@@H]4C[C@H](O)CC[C@]4(C)[C@H]3C[C@H](O)[C@]12C.[Na+] [Sodium cholate]
[1]
  Dissolution in aqueous medium (2 ml): Precipitation

## O=C([O-])CC(O)(CC(=O)[O-])C(=O)[O-].[Na+].[Na+].[Na+] [Sodium citrate]
[3]; [9]
  Dissolution in aqueous medium (2 ml): Clear solution

## CCCCCCCCCCCCOS(=O)(=O)[O-].[Na+] [Sodium dodecyl sulfate]
[3]; [9]
  Dissolution in aqueous medium (2 ml): Clear solution
[1]
  Dissolution in aqueous medium (2 ml): Clear solution

## O=C([O-])c1ccccc1O.[Na+] [Sodium salicylate]
[3]; [9]
  Dissolution in aqueous medium (2 ml): Clear solution

## CN[C@H](CC(C)C)C(=O)N[C@H]1C(=O)N[C@@H](CC(N)=O)C(=O)N[C@H]2C(=O)N[C@H]3C(=O)N[C@H](C(=O)N[C@H](C(=O)O)c4cc(O)cc(O)c4-c4cc3ccc4O)[C@H](O)c3ccc(c(Cl)c3)Oc3cc2cc(c3O[C@@H]2O[C@H](CO)[C@@H](O)[C@H](O)[C@H]2O[C@H]2C[C@](C)(N)[C@H](O)[C@H](C)O2)Oc2ccc(cc2Cl)[C@H]1O [Vancomycin, Vancomycin hydrochloride]
[7]; [14]
  AUC(0-t): 11000 ng·h/mL
  Cmax: 8800 ± 300 ng/mL
[7]; [15]
  AUC(0-t): 3000 ng·h/mL
  Cmax: 2400 ± 200 ng/mL
[7]; Sprague Dawley, rat, plasma, vancomycin 20 mg/kg into ileum, lauroyl carnitine 50 mg/ml, CuSO4 1 mg/ml, sodium ascorbate 250 mg/ml, vs i.v., read-out: F (absolute bioavailability)
  bioavailability: 8 ± 0.4%
[7]; vancomycin 5 mg/kg i.v. (reference)
  F: 100 ± 7%
[7]; vancomycin formulation with lauroyl carnitine, CuSO4, sodium ascorbate
  bioavailability in comparison with published F values after oral administration, in words: increased markedly its bioavailability
[6]
  oral bioavailability: ~0.1%

## CCCCCCCCCCCCO[C@@H]1O[C@H](CO)[C@@H](O[C@H]2O[C@H](CO)[C@@H](O)[C@H](O)[C@H]2O)[C@H](O)[C@H]1O [n-Dodecyl-beta-D-maltoside]
[3]; [9]
  Dissolution in aqueous medium (2 ml): Clear solution
[1]
  Dissolution in aqueous medium (2 ml): Clear solution

## CCCCCCCCO[C@@H]1O[C@H](CO)[C@@H](O)[C@H](O)[C@H]1O [n-Octyl-beta-D-glucopyranoside]
[3]; [9]
  Dissolution in aqueous medium (2 ml): Clear solution
[1]
  Dissolution in aqueous medium (2 ml): Clear solution

## Human growth hormone [hGH]
[8]; [16]
  AUC(0-t): 7630 ± 471 ng·min/mL
  Cmax: 44 ng/mL
  Tmax: 30 min
[8]; s.c. (reference)
  F: 100 ± 6%

## Methyl-beta-cyclodextrin
[3]; [9]
  Dissolution in aqueous medium (2 ml): Clear solution

## Sodium lauroyl sarcosinate
[3]; [9]
  Dissolution in aqueous medium (2 ml): Precipitation
